# Measurements published in PMC11537802, “The Neuroprotection of 1,2,4‐Triazole Derivative by Inhibiting Inflammation and Protecting BBB Integrity in Acute Ischemic Stroke” (CNS Neuroscience & Therapeutics, 2024).
# What was measured:
# MCAO rats [1] = experiment: neurological score (Zea-Longa) in MCAO rats; type: in vivo, Sprague–Dawley rats; settings: 48 h after surgery
# Excerpt: C57BL/6 mice were randomly assigned to treatment groups by body weight. Operator blind to treatment status of animals. After the mice were anesthetized, a midline cervical incision was made. The left common carotid artery and external carotid artery were isolated and ligated. Arterial clamps were placed at the preparation line and distal end of the internal carotid artery. An incision was made at the bifurcation of the common carotid artery. 4–0 nylon line was inserted to a depth of 17–20 mm. The nylon line entered the internal carotid artery; then, it entered the skull to the anterior cerebral artery and blocked all blood flow sources in the middle cerebral artery. After keeping ischemic for 1 h, the animals were re‐anesthetized and then pulled out the nylon line for about 1 cm to achieve reperfusion for up to 48 h. The wound was disinfected with iodophor, and the skin was sutured. Put them on the electric blanket to maintain the body temperature after the completion of surgery; then, they were returned to cages upon recovery. For the sham group, except that no nylon line is inserted, other steps are the same as above. Sham group and model group were given 20% polyoxyethylene castor oil. Subsequently, the animals were sacrificed, and the serum and brains were collected for a series of subsequent analyses and studies.
# Rats were randomly divided into five groups: Sham group (n = 24), rats received sham operation; MCAO model group (n = 30); SYS18 low‐dose group (7.5 mg/kg, n = 30); SYS18 high‐dose group (15 mg/kg, n = 30); and Positive control group rats were intraperitoneally injected with edaravone (15 mg/kg, n = 30). […]
# According to Zea‐Longa 4‐point scoring criteria, the animals were scored for neurological function at 48 h after surgery. […] And the degree of each animal model was scored as follows: 0 point, no symptoms of nerve injury; 1 point, inability to fully extend the forepaw; 2 points, circling laterally; 3 points, tip to the opposite side; 4 points, inability to walk spontaneously and loss of consciousness. […]
# SOD = experiment: serum SOD in MCAO rats (kit); type: in vivo, Sprague–Dawley rats; settings: 15 mg/kg, 48 h
# Description: (§1) Rats were randomly divided into five groups: Sham group (n = 24), rats received sham operation; MCAO model group (n = 30); SYS18 low‐dose group (7.5 mg/kg, n = 30); SYS18 high‐dose group (15 mg/kg, n = 30); and Positive control group rats were intraperitoneally injected with edaravone (15 mg/kg, n = 30). The tested compound was dissolved in 20% polyoxyethylene castor oil and was administered 0.5 h before operation and 6, 12, 24, and 36 h after reperfusion. The measurements were carried out 48 h after the operation. Ten animals in each group were used to measure brain water content, and 10 animals in each group were used to detect Evans blue content in brain tissue. Ten animals in each group were used for determination of biochemical indicators and pathological observations and WB experiments.
# (§2) Blood sample was collected at 48 h after MCAO. After centrifugation at 4°C × 12,000 g for 10 min, the clear supernatant was stored at −80°C. The components of SOD, MDA, TNF‐α, and IL‐1β in the blood samples were measured according to the instructions of the assay kits.
# heparanase (HPSE) = heparanase (HPSE) in brain of MCAO rats (ELISA); type: in vivo, Sprague–Dawley rats; settings: SYS18 high dose 15 mg/kg, 48 h, p < 0.05
# Description: as §1
# Blood and brain sample were collected at 48 h after MCAO. After centrifugation at 4°C × 12,000 g for 10 min, the clear supernatant was stored at −80°C. Their concentrations of syndecan‐1, HS, and heparanase (HPSE) were determined using an ELISA kit. […] Substrates A and B were added, and the substrate was catalyzed by HRP to produce a product, which eventually converted under the action of a stop solution, and the absorbance (OD value) was measured at a wavelength of 450 nm on a microplate reader.
# IL‐1β = experiment: serum IL-1β in MCAO rats (ELISA); type: in vivo, Sprague–Dawley rats; settings: 15 mg/kg, 48 h, p < 0.05
# Description: as §1, §2
# [2] = test system: mice model of increased peritoneal capillary permeability; experiment: acetic acid-induced increased peritoneal capillary permeability model (Evans blue in peritoneal lavage); type: in vivo, Kunming mice
# Description: Sixty Kunming mice were randomly divided into control group, SYS18 low, medium, and high‐dose groups (20, 40, and 80 mg/kg, respectively), and positive control group was given celecoxib (40 mg/kg), 10 mice in each group. The mice in each group were administrated with 0.2 mL/10 g once a day for three consecutive days.
# One hour after the last administration, 2% Evans blue saline 0.1 mL/10 g was injected via the tail vein, and 0.6% acetic acid 0.2 mL/10 g was injected intraperitoneally immediately. Twenty minutes later, the mice were killed, the abdominal cavity was cut open, and the abdominal cavity was washed several times with 5 mL normal saline to collect washing fluid. The samples were centrifuged at 4700 r/min for 5 min, and the lateral absorbance at the wavelength of 620 nm was measured with a UV spectrophotometer to compare the differences between groups.
# Acetic acid‐induced increased peritoneal capillary permeability in mice is a classic model of peripheral inflammation. Anti‐inflammatory effects of SYS18 were evaluated by using an increased peritoneal capillary permeability assay. After intravenous injection of Evans blue saline solution, intraperitoneal injection of acetic acid was used to increase peritoneal capillary permeability in mice. The peritoneal capillary permeability of mice in each group was compared by collecting peritoneal lavage fluid and measuring abdominal Evans blue absorbance.
# MCAO rats [3] = experiment: blood–brain barrier permeability (Evans blue content in brain) in MCAO rats; type: in vivo, Sprague–Dawley rats; settings: 48 h
# Description: as §1
# The integrity of the BBB was investigated using Evans blue (EB). Forty‐six hours after reperfusion, rats were injected with EB (4% saline, 4 mL/kg) via the tail vein. Two hours later, rats were anesthetized and perfused with saline through the left ventricle until colorless perfusate. After hydrangea and brainstem were removed, the brains were collected and homogenized. Evans blue was extracted from the brain with N,N‐dimethylformamide. After centrifugation at 3700 rpm for 15 min, the absorbance of supernatant was detected at 620 nm wavelength.
# MCAO rats [4] = experiment: hematoxylin and eosin staining of brain tissue in MCAO rats; type: in vivo, Sprague–Dawley rats; settings: high-dose SYS18 (15 mg/kg), 48 h ischemia–reperfusion
# Description: as §1
# Hematoxylin and eosin staining were used to observe the effect of SYS18 on pathological changes in ischemia–reperfusion brain tissue. After 48 h of ischemia–reperfusion, the rats were sacrificed, and the brains were immediately fixed with 4% paraformaldehyde after transcranial perfusion with ice‐cold saline (The damaged brain is located in the ischemic penumbra of the right brain. Through HE staining and pathological sectioning under a microscope, the area where neuronal cells are morphologically intact and have not yet degenerated or necrotic is determined as the ischemic penumbra). […]
smiles,measurement,setting,value
"COc1ccc(-c2nc(-c3ccccc3O)n(-c3ccc(S(N)(=O)=O)cc3)n2)c(O)c1 [SYS18, 4‐(3‐(2‐hydroxy‐4‐methoxyphenyl)‐5‐(2‐hydroxyphenyl)‐1H‐1,2,4‐triazol‐1‐yl) benzenesulfonamide]",neurological score,"MCAO rats [1]; 7.5 mg/kg (low dose), model 2.42 ± 0.84, p > 0.05",1.95 ± 0.74
same,neurological score,"MCAO rats [1]; 15 mg/kg (SYS18 high dose; edaravone i.p.), model 2.42 ± 0.84, p < 0.01",1.52 ± 0.68
same,SOD level in serum vs model group,SOD,could improve SOD level in serum
same,HPSE in brain tissue vs model group,heparanase (HPSE),decreased
same,IL-1β in serum vs model group,IL‐1β,significantly decreased
same,absorbance of Evans blue in peritoneal lavage fluid vs model group,[2]; SYS18 high dose 80 mg/kg once a day for 3 days,no statistical difference
same,absorbance of Evans blue in peritoneal lavage fluid vs model group,[2]; SYS18 low dose 20 mg/kg once a day for 3 days,did not significantly reduce
same,concentration of Evans blue in peritoneal lavage fluid vs model group,[2]; SYS18 medium dose 40 mg/kg once a day for 3 days,significantly reduced
same,Evans blue content in brain tissue,"MCAO rats [3]; 7.5 mg/kg (low dose), p > 0.05 vs model",7.06 ± 1.58 µg/g
same,Evans blue content in brain tissue,MCAO rats [3]; 15 mg/kg (SYS18 high dose; or edaravone positive control),5.74 ± 0.54 µg/g
same,histological damage of nerve cells in cerebral cortex (HE staining),MCAO rats [4],the necrosis of nerve cell in the brain tissue was attenuated
